Reference: patent US20230279482A1, “COMPOSITIONS, METHODS AND USES FOR QUANTIFYING TRANSCRIPTION AND BIOSENSING OF SMALL MOLECULES USING A NOVEL TYPE VI CRISPR-CAS ASSAY” (THE REGENTS OF THE UNIVERSITY OF COLORADO, A BODY CORPORATE, priority 2020, published 2023)
Like-named read-outs stand apart in the source and are kept apart here.

Experiments:
bacterial RNAP [1] = molecular target: T1, bacterial RNAP (Escherichia coli, UniProt P0A8V2); experiment: SPRINT rifampicin titration with constitutive promoter; assay type: biochemical, E. coli
Target sequence in this assay (P0A8V2 whole entry): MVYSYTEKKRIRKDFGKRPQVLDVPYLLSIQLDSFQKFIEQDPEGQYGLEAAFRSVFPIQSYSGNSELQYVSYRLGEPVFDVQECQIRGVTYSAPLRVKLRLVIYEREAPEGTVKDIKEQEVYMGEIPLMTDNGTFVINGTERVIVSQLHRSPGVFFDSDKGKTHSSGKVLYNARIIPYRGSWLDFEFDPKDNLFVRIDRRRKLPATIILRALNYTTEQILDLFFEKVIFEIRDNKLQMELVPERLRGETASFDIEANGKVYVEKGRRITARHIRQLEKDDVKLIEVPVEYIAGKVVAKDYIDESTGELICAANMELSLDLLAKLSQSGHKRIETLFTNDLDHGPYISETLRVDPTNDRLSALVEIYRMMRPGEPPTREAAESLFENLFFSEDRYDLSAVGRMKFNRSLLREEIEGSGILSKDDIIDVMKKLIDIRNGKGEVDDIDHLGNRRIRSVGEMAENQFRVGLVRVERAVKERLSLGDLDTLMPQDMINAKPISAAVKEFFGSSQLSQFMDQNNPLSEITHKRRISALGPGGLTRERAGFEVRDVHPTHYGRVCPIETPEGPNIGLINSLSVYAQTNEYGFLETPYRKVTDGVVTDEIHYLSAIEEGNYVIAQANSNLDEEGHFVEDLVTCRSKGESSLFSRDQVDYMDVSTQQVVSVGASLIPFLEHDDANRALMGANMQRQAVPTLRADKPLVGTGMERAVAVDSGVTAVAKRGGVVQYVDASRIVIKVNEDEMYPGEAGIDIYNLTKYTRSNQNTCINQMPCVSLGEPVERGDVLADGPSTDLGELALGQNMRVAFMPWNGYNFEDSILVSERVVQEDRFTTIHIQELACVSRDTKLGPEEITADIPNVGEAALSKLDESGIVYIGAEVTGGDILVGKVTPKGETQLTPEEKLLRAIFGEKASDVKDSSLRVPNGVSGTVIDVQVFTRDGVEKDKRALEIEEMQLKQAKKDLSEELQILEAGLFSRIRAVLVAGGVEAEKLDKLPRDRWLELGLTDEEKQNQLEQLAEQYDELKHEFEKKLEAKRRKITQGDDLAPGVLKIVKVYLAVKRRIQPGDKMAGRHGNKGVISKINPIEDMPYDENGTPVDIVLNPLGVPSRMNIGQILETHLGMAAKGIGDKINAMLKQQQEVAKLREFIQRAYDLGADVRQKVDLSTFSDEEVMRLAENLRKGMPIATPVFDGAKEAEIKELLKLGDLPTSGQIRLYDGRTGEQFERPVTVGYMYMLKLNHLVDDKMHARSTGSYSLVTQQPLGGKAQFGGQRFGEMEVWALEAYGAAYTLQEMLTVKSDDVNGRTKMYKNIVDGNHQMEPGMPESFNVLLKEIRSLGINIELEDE
Target sequence in this assay (P0A8T7 whole entry partner): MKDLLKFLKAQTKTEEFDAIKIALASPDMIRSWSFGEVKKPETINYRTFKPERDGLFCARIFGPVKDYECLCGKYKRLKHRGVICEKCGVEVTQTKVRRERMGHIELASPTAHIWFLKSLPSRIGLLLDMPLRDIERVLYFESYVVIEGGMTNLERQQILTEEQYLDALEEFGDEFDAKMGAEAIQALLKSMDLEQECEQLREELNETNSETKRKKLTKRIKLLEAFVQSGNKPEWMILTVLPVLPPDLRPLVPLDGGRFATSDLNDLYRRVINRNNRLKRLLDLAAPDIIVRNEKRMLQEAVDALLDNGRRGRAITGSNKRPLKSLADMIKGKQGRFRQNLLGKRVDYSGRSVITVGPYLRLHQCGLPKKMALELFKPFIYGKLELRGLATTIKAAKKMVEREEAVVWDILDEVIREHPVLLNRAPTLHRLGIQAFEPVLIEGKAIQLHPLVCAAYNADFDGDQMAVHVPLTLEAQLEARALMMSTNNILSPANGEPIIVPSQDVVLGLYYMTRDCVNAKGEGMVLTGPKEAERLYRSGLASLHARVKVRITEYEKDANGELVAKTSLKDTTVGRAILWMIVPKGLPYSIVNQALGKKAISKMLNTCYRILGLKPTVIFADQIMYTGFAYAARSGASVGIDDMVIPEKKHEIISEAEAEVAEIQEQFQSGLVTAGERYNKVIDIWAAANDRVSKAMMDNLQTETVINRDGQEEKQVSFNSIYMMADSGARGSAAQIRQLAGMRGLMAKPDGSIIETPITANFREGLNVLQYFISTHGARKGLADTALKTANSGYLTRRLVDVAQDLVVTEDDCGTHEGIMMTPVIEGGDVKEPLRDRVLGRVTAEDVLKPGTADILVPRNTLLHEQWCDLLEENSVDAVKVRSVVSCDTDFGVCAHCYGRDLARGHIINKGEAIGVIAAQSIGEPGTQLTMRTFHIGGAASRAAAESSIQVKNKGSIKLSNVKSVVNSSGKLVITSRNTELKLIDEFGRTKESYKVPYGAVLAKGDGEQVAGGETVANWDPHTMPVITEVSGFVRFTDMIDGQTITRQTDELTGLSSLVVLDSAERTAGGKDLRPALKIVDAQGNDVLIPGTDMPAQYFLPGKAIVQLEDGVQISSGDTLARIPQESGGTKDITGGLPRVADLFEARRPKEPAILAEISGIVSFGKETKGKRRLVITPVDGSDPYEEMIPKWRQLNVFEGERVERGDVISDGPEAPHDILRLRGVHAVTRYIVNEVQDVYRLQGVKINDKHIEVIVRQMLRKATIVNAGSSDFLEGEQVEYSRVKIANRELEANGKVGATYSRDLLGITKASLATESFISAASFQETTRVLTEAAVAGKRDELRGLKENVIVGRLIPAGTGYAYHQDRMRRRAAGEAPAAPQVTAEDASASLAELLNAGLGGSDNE
Target sequence in this assay (P0A7Z4 whole entry partner): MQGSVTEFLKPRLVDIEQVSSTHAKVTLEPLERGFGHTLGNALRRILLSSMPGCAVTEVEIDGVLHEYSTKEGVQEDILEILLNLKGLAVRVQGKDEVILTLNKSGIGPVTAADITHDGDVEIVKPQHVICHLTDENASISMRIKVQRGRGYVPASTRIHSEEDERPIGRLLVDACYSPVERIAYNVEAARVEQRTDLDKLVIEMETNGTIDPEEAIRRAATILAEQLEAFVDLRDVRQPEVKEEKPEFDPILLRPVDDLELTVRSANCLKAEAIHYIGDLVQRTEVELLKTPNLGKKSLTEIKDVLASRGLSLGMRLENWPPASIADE
Target sequence in this assay (P0A800 whole entry partner): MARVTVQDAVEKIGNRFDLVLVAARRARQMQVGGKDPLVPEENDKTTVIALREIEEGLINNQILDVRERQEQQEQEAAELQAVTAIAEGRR
Target sequence in this assay (P00579 whole entry partner): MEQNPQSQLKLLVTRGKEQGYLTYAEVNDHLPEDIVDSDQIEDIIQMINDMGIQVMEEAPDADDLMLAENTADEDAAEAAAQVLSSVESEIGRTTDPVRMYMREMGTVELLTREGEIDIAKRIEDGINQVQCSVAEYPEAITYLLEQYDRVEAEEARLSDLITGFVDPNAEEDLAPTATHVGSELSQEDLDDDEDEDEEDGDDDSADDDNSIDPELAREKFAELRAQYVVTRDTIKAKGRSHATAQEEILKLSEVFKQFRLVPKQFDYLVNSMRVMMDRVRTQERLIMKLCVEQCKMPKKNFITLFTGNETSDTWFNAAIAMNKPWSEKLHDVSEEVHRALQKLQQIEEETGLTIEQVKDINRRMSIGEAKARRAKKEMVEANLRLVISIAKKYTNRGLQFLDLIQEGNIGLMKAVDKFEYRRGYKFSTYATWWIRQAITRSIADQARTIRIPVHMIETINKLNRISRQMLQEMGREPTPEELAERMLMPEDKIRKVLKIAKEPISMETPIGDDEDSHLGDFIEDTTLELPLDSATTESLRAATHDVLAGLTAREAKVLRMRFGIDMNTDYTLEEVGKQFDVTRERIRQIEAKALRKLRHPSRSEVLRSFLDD

bacterial RNAP [2] = molecular target: T1, bacterial RNAP; conditions: cited from earlier work
tetR [3] = molecular target: T2, tetR (Escherichia coli, UniProt P04483); experiment: biochemical
Protocol: In other exemplary methods, reactions with allosteric transcription factors (aTFs), ROSALIND reagent buffer (10× buffer containing, for assays contemplated herein, but not limited to: 400 mM Tris-HCl, pH 8.0, 200 mM NaCl, 20 mM spermidine, 100 mM DTT and 80 mM MgCl2) were used. The buffer was prepared fresh or stored as single-use aliquots at −80° C. […] The final concentration of the aTF monomers was either 2.5 μM tetR or 10 μM smtB. The master mix was incubated for 15 minutes at 37° C. which allows the aTFs to bind to the operator sequence.
In another exemplary method, bacterial transcription can be regulated by allosteric transcription factors (aTFs), such as activators or repressors, which have previously been used for small molecule detection. Another system (“ROSALIND”) enabled rapid detection of compounds via aTFs. […] The ROSALIND buffer system differs from the SPRINT or SHERLOCK buffer. Therefore, it was tested whether aTF-based ROSALIND reactions could be integrated with the Cas13a-based detection method. To simplify the system, the inorganic pyrophosphatase (IPPase) enzyme was first removed from the ROSALIND system. IPPase was used in transcription reactions to degrade pyrophosphate which was a reaction product of the RNA polymerase and can inhibit the reaction. […] Adaptions included reducing the concentrations of rNTP from 2.85 mM to 40 μM, DNA template from 25 to 15 nM, and T7 RNAP from 10 to 6.7 ng/μL.
The responses of the de-repressors tetR and smtB were measured with SPRINT.

tetR [4] = molecular target: T2, tetR; conditions: read-out: previously reported range; cited from earlier work
[5] = tested on: guanine riboswitch xpt/pbuE*6U; experiment: SPRINT compound screen on guanine riboswitch; assay type: biochemical; conditions: 1 μM, FIG. 10
Protocol: Briefly, the transcriptional response of the guanine riboswitch xpt/pbuE*6U to 30 different compounds was measured at two different concentrations each (FIG. 9A and FIG. 10). The concentrations used were 10 μM and 1 mM for most compounds. The signal that was obtained from control experiments with the solvents DMSO or water was subtracted from all values.

bacteria = conditions: cited from earlier work
[6] = tested on: SPRINT assay without riboswitch (constitutively transcribed Cas13a target); experiment: SPRINT control screen with constitutive promoter template (PAINS identification); conditions: FIG. 9B
Protocol: The master mix was gently mixed by pipetting up and down and incubated at 37° C. for 15 minutes to allow binding of crRNA to Cas13a protein and the microwell plate was prepared by adding 3 μL of 10× ligand to the wells. The reaction was initiated by addition of rNTPs to the master mix to a concentration of 20 μM and then 27 μL of the complete master mix were added to each well and pipetted up and down to mix with the ligand in the wells. The plate was covered with an optical adhesive film to prevent evaporation of the sample while taking fluorescence measurements in a plate reader that was preheated to 37° C.

guanine riboswitch = conditions: as low as; cited from earlier work

T2 sequence (P04483 whole entry): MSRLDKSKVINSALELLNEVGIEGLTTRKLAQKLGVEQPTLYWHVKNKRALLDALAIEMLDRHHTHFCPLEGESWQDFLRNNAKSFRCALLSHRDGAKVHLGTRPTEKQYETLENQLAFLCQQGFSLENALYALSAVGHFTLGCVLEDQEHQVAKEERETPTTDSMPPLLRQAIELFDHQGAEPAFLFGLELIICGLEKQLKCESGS

## CO[C@H]1/C=C/O[C@@]2(C)Oc3c(C)c(O)c4c(O)c(c(/C=N/N5CCN(C)CC5)c(O)c4c3C2=O)NC(=O)/C(C)=C\C=C\[C@H](C)[C@H](O)[C@@H](C)[C@@H](O)[C@@H](C)[C@H](OC(C)=O)[C@@H]1C [rifampicin]
Bacterial RNAP [1]
  IC50: 0.0059 ± 0.0006 µM
Bacterial RNAP [2]
  Kd: 0.003 µM

## Cc1c2c(c(O)c3c(O)cccc13)C(=O)[C@]1(O)C(=O)C(C(N)=O)=C(O)[C@@H](N(C)C)[C@@H]1C2 [anhydrotetracycline]
tetR [3]
  EC50: 1.9 ± 0.2 µM
tetR [4]
  EC50: 1 to 2.5 µM

## Nc1nc(N)c(N)c(=O)[nH]1 [2,5,6-TAP]
[5]
  transcriptional activation at low concentration: only slightly activated transcription
bacteria
  concentration with bactericidal properties: 8 mM
[6]; 100 μM, FIG. 10
  effect on enzymatic activity of the SPRINT assay at high concentration: completely shut down enzymatic activity
[6]; constitutive promoter template
  interference with SPRINT assay (PAINS): interfering compounds
Guanine riboswitch
  concentration at which it binds the guanine riboswitch: ≥ 100 nM
